21 compounds from patent US10577378B2, “EIF4A-inhibiting compounds and methods related thereto” (eFFECTOR Therapeutics, Inc., priority 2015, dated 2020) can be followed below.

The assay concerns MDA-MB-231 human breast cancer cells. As to the kind of experiment: Cell proliferation assay (CellTiter-Glo, 72 hours treatment). Type of assay: cell-based. The conditions noted are these: Homo sapiens; MDA-MB-231 cells, 72 hours at 37° C., CellTiter-Glo; read-out: MDA-MB-231 cell proliferation assay (IC50). A digest of the protocol: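 MDA-MB-231 cells seeded at 2,500 cells/well, treated next day with compound or DMSO vehicle for 72 h at 37 °C. Proliferation read by CellTiter-Glo; IC50 from sigmoidal non-linear regression, binned as +++ (<100 nM), ++ (100–1000 nM), + (>1000 nM).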
In general terms: In ATP-based viability assays light output follows the ATP content of the culture.
Take `COc1nc(C#N)cc2c1[C@]1(O)[C@@H](CN3CCC(F)(F)CC3)[C@H](CO)[C@@H](c3ccccc3)[C@]1(c1ccc(C#N)cc1)O2` (racemic) [213F, Rac-(5aR,6S,7R,8R,8aR)-5a-(4-cyanophenyl)-8-((4,4-difluoropiperidin-1-yl)methyl)-8a-hydroxy-7-(hydroxymethyl)-1-methoxy-6-phenyl-5a,7,8,8a-tetrahydro-6H-cyclopenta[4,5]furo[3,2-c]pyridine-3-carbonitrile]: the IC50 is less than 100 nM.
With `CC1(C)COCCN1C[C@H]1[C@@H](O)[C@@]2(O)c3ncc(Cl)cc3O[C@@]2(c2ccc(Br)cc2)[C@@H]1c1ccccc1` (racemic) [214F, Rac-(5aR,6S,7S,8R,8aS)-5a-(4-bromophenyl)-3-chloro-7-((3,3-dimethylmorpholino)methyl)-6-phenyl-5a,6,7,8-tetrahydro-8aH-cyclopenta[4,5]furo[3,2-b]pyridine-8,8a-diol], the IC50 fell in the range of 100 to 1000 nM.
Consider `COc1nc(Cl)cc2c1[C@]1(O)[C@H](O)[C@H](C(=O)N3CC(C(F)F)C3)[C@@H](c3ccccc3)[C@]1(c1ccc(Br)cc1)O2` (racemic) [215F, Rac-((5aR,6S,7R,8R,8aS)-5a-(4-bromophenyl)-3-chloro-8,8a-dihydroxy-1-methoxy-6-phenyl-5a,7,8,8a-tetrahydro-6H-cyclopenta[4,5]furo[3,2-c]pyridin-7-yl)(3-(difluoromethyl)azetidin-1-yl)methanone], for which the IC50 was less than 100 nM.
Then `COc1nc(Cl)cc2c1[C@]1(O)[C@H](O)[C@H](CN3CC(C(F)F)C3)[C@@H](c3ccccc3)[C@]1(c1ccc(C#N)cc1)O2` (racemic) [217F, rac-4-((5aR,6S,7S,8R,8aS)-3-chloro-7-((3-(difluoromethyl)azetidin-1-yl)methyl)-8,8a-dihydroxy-1-methoxy-6-phenyl-6,7,8,8a-tetrahydro-5aH-cyclopenta[4,5]furo[3,2-c]pyridin-5a-yl)benzonitrile], with less than 100 nM; and `COc1nc(C#N)cc2c1[C@]1(O)[C@H](O)[C@H](CN3CC(C(F)F)C3)[C@@H](c3ccccc3)[C@]1(c1ccc(C#N)cc1)O2` (racemic) [218F, Rac-(5aR,6S,7S,8R,8aS)-5a-(4-cyanophenyl)-7-((3-(difluoromethyl)azetidin-1-yl)methyl)-8,8a-dihydroxy-1-methoxy-6-phenyl-5a,7,8,8a-tetrahydro-6H-cyclopenta[4,5]furo[3,2-c]pyridine-3-carbonitrile], with less than 100 nM; and `COc1nc(Cl)cc2c1[C@]1(O)[C@H](O)[C@H](C(=O)N3CCC34CC4(F)F)[C@@H](c3ccccc3)[C@]1(c1ccc(Br)cc1)O2` (mixture of isomers) [219F, Rac-((5aR,6S,7R,8R,8aS)-5a-(4-bromophenyl)-3-chloro-8,8a-dihydroxy-1-methoxy-6-phenyl-5a,7,8,8a-tetrahydro-6H-cyclopenta[4,5]furo[3,2-c]pyridin-7-yl)(1,1-difluoro-4-azaspiro[2.3]hexan-4-yl)methanone], with less than 100 nM.
For the compound `COc1nc(Cl)cc2c1[C@]1(O)[C@H](O)[C@H](CN3CCC34CC4(F)F)[C@@H](c3ccccc3)[C@]1(c1ccc(Br)cc1)O2` (mixture of isomers) [220F, Rac-(5aR,6S,7S,8R,8aS)-5a-(4-bromophenyl)-3-chloro-7-((1,1-difluoro-4-azaspiro[2.3]hexan-4-yl)methyl)-1-methoxy-6-phenyl-5a,6,7,8-tetrahydro-8aH-cyclopenta[4,5]furo[3,2-c]pyridine-8,8a-diol], the IC50 is less than 100 nM.
Consider `COc1nc(C#N)cc2c1[C@]1(O)[C@H](O)[C@H](CN3CCC34CC4(F)F)[C@@H](c3ccccc3)[C@]1(c1ccc(C#N)cc1)O2` (mixture of isomers) [221F, Rac-(5aR,6S,7S,8R,8aS)-5a-(4-cyanophenyl)-7-((1,1-difluoro-4-azaspiro[2.3]hexan-4-yl)methyl)-8,8a-dihydroxy-1-methoxy-6-phenyl-5a,7,8,8a-tetrahydro-6H-cyclopenta[4,5]furo[3,2-c]pyridine-3-carbonitrile], for which the IC50 is less than 100 nM.
In the case of `COc1nc(Cl)cc2c1[C@]1(O)[C@H](O)[C@H](CN3CCC34CC4(F)F)[C@@H](c3ccccc3)[C@]1(c1ccc(C#N)cc1)O2` (mixture of isomers) [222F, Rac-4-((5aR,6S,7S,8R,8aS)-3-chloro-7-((1,1-difluoro-4-azaspiro[2.3]hexan-4-yl)methyl)-8,8a-dihydroxy-1-methoxy-6-phenyl-6,7,8,8a-tetrahydro-5aH-cyclopenta[4,5]furo[3,2-c]pyridin-5a-yl)benzonitrile] it was less than 100 nM; in that of `CNC[C@H]1[C@@H](O)[C@@]2(O)c3c(cc(Cl)nc3OC)O[C@@]2(c2ccc(C#N)cc2)[C@@H]1c1ccccc1` (racemic) [224F, Rac-4-((5aR,6S,7S,8R,8aS)-3-chloro-8,8a-dihydroxy-1-methoxy-7-((methylamino)methyl)-6-phenyl-6,7,8,8a-tetrahydro-5aH-cyclopenta[4,5]furo[3,2-c]pyridin-5a-yl)benzonitrile], less than 100 nM; in that of `CNC[C@H]1[C@@H](O)[C@@]2(O)c3c(cc(C#N)nc3OC)O[C@@]2(c2ccc(C#N)cc2)[C@@H]1c1ccccc1` (racemic) [225F, Rac-(5aR,6S,7S,8R,8aS)-5a-(4-cyanophenyl)-8,8a-dihydroxy-1-methoxy-7-((methylamino)methyl)-6-phenyl-5a,7,8,8a-tetrahydro-6H-cyclopenta[4,5]furo[3,2-c]pyridine-3-carbonitrile], less than 100 nM.
In the case of `COc1cncc2c1[C@]1(O)[C@@H](CNC(C)(C)C)[C@H](CO)[C@@H](c3ccccc3)[C@]1(c1ccc(Br)cc1)O2` (racemic) [226F, Rac-(4bR,5R,6R,7S,7aR)-7a-(4-bromophenyl)-5-((tert-butylamino)methyl)-6-(hydroxymethyl)-4-methoxy-7-phenyl-5,6,7,7a-tetrahydro-4bH-cyclopenta[4,5]furo[2,3-c]pyridin-4b-ol] it was less than 100 nM; in that of `CN(C)C[C@H]1[C@@H](C#N)[C@@]2(O)c3ncc(Cl)cc3O[C@@]2(c2ccc(Br)cc2)[C@@H]1c1ccccc1` (racemic) [227F, Rac-(5aR,6S,7R,8S,8aR)-5a-(4-bromophenyl)-3-chloro-7-((dimethylamino)methyl)-8a-hydroxy-6-phenyl-5a,7,8,8a-tetrahydro-6H-cyclopenta[4,5]furo[3,2-b]pyridine-8-carbonitrile], more than 1000 nM; in that of `CN(C)C[C@H]1[C@@H](C#N)[C@@]2(O)c3ncc(Cl)cc3O[C@@]2(c2ccc(C#N)cc2)[C@@H]1c1ccccc1` (racemic) [228F, Rac-(5aR,6S,7R,8S,8aR)-3-chloro-5a-(4-cyanophenyl)-7-((dimethylamino)methyl)-8a-hydroxy-6-phenyl-5a,7,8,8a-tetrahydro-6H-cyclopenta[4,5]furo[3,2-b]pyridine-8-carbonitrile], more than 1000 nM.
Turning to `COc1cc2c(c(OC)n1)[C@]1(O)[C@H](O)[C@H](C(=O)N(C)C)[C@@H](c3ccccc3)[C@]1(c1ccc(Br)cc1)O2` (racemic) [229F, rac-(5aR,6S,7R,8R,8aS)-5a-(4-bromophenyl)-8,8a-dihydroxy-1,3-dimethoxy-N,N-dimethyl-6-phenyl-5a,7,8,8a-tetrahydro-6H-cyclopenta[4,5]furo[3,2-c]pyridine-7-carboxamide], the IC50 is less than 100 nM.
For `COc1cc2c(c(OC)n1)[C@]1(O)[C@H](O)[C@H](CN(C)C)[C@@H](c3ccccc3)[C@]1(c1ccc(Br)cc1)O2` (racemic) [230F, Rac-(5aR,6S,7S,8R,8aS)-5a-(4-bromophenyl)-7-((dimethylamino)methyl)-1,3-dimethoxy-6-phenyl-5a,6,7,8-tetrahydro-8aH-cyclopenta[4,5]furo[3,2-c]pyridine-8,8a-diol], the IC50 is less than 100 nM.
Regarding `CCN(CC)C[C@H]1[C@@H](O)[C@@]2(O)c3c(cc(OC)nc3OC)O[C@@]2(c2ccc(C#N)cc2)[C@@H]1c1ccccc1` (racemic) [232F, Rac-4-((5aR,6S,7S,8R,8aS)-7-((diethylamino)methyl)-8,8a-dihydroxy-1,3-dimethoxy-6-phenyl-6,7,8,8a-tetrahydro-5aH-cyclopenta[4,5]furo[3,2-c]pyridin-5a-yl)benzonitrile], the IC50 was less than 100 nM.
For `COc1cncc2c1[C@]1(O)[C@@H](CO)C[C@@H](c3ccccc3)[C@]1(c1ccc(CN)cc1)O2` (racemic) [234F, rac-(4bR,5R,7S,7aR)-7a-(4-(aminomethyl)phenyl)-5-(hydroxymethyl)-4-methoxy-7-phenyl-5,6,7,7a-tetrahydro-4bH-cyclopenta[4,5]furo[2,3-c]pyridin-4b-ol], the IC50 was more than 1000 nM.
Regarding `COc1cncc2c1[C@]1(O)[C@H](O)[C@H](C(=O)N3CC4(COC4)C3)[C@@H](c3ccccc3)[C@]1(c1ccc(Br)cc1)O2` (racemic) [235F, Rac-((4bS,5R,6R,7S,7aR)-7a-(4-bromophenyl)-4b,5-dihydroxy-4-methoxy-7-phenyl-4b,6,7,7a-tetrahydro-5H-cyclopenta[4,5]furo[2,3-c]pyridin-6-yl)(2-oxa-6-azaspiro[3.3]heptan-6-yl)methanone], the IC50 is less than 100 nM.
As for `COc1cncc2c1[C@]1(O)[C@H](O)[C@H](CN3CC4(COC4)C3)[C@@H](c3ccccc3)[C@]1(c1ccc(C#N)cc1)O2` (racemic) [236F, Rac-4-((4bS,5R,6S,7S,7aR)-6-((2-oxa-6-azaspiro[3.3]heptan-6-yl)methyl)-4b,5-dihydroxy-4-methoxy-7-phenyl-4b,5,6,7-tetrahydro-7aH-cyclopenta[4,5]furo[2,3-c]pyridin-7a-yl)benzonitrile], the IC50 lay in the range of 100 to 1000 nM.
Consider `COc1cncc2c1[C@]1(O)[C@H](O)[C@H](C(=O)N(C)C3COC3)[C@@H](c3ccccc3)[C@]1(c1ccc(Br)cc1)O2` (racemic) [237F, Rac-(4bS,5R,6R,7S,7aR)-7a-(4-bromophenyl)-4b,5-dihydroxy-4-methoxy-N-methyl-N-(oxetan-3-yl)-7-phenyl-4b,6,7,7a-tetrahydro-5H-cyclopenta[4,5]furo[2,3-c]pyridine-6-carboxamide], for which the IC50 was less than 100 nM.
